Experimental data as given in US20260355137A1, “NOVEL OPHTHALMIC FORMULATION” (FERTIS INDIA PVT LTD, priority 2022, published 2026).
Entries after “also recorded” stand apart in the source; their conditions may differ.

What was measured:
Assay type in all cases: in vivo, New Zealand rabbit
[1] = test system: cataract induced left eye: lens; assay: Microscopic observations (histopathology) of lens (Table 12); conditions: left eye (cataract induced)
Procedure: (§1) An illustrative ophthalmic formulation for treatment of eye disease is set forth below: The formulations provided herein below are tested in cataract induced New Zealand rabbits, and the results are discussed herein below.
(§2) Cataract was induced by injecting 0.5% Methyl Cellulose, which is replaced by aqueous humor in the rabbit eye (i.e., 0.2 mL of Aqueous humor was withdrawn and the same 0.2 mL of 0.5% Methyl cellulose was injected as a replacement). Cataract was observed within 3-4 days of 0.5% Methyl cellulose replacement. Cataract induction was performed to left eye and right eye was served as a control.
(§3) All surviving animals were euthanized on Day 29 by overdose of Thiopental Sodium. Before scheduled euthanasia, the animals were fasted overnight (water allowed) and terminal body weights were recorded. Animals were subjected to detailed macroscopic observation during necropsy. Both right (untreated/uninduced) and left (treated/induced) eyes were collected and cornea and lens were separated, preserved in Davidson fluid. Cornea and lens selected for histopathological evaluation were processed, embedded and sections were cut at 3-5 μm thickness, Sections were placed on grease-free slides and stained with Hematoxylin and Eosin. A 5-step grading system of minimum, mild, moderate, marked and severe will be used to rank microscopic findings for comparison among groups. Data was compiled based on incidences and severity of changes.

[2] = test system: intraocular pressure, induced left eye; assay: Intraocular pressure, tonometer (Table 13); parameters: unit not given beside the values; conditions: left eye induced/treated
Procedure: as §2
(§4) Rabbits were observed by ophthalmoscope and slit lamp once in three days for cataract confirmation. Intraocular pressure was measured with a tonometer once in three days for the confirmation of glaucoma.
(§5) Intra-ocular pressures were measured in animals in each group once in three days using a Tonometer. The readings were documented for each eye separately.

[3] = test system: cataract induced left eye; assay: Macroscopic examination, cataract induced left eye (cinnamic acid derivatives, Tables 10-11); conditions: left eye (cataract induced), macroscopic; for No Abnormality Detected, incidence: animals affected/6
Procedure: as §1, §2, §4

[4] = test system: cataract and intraocular pressure/glaucoma in induced rabbit eye; assay: Overall efficacy in cataract reduction and reducing intraocular pressure; conditions: third study; cataract reduction and reducing intraocular pressure, highest to lowest
Procedure: as §1
The following preclinical studies were conducted in rabbit model to test the efficacy of various active ingredients.
as §2, §4

[5] = test system: intraocular pressure, glaucoma-induced left eye; assay: Intraocular pressure, tonometer (Table 17); conditions: for Intraocular pressure, Mean, Left eye: Left (induced) eye; for Intraocular pressure, Mean, Left eye / Intraocular pressure, Mean, Right eye: male, 6 animals/group; for intraocular pressure following treatment / mean intraocular pressure initially measured: induced left eye; for intraocular pressure following treatment: 28-day treatment regimen, 0.5%; for mean intraocular pressure initially measured: six animals, within three days
Procedure: as §2, §4, §5

[6] = test system: cataract induced left eye: lens and cornea; assay: Microscopic examination (histopathology) of lens and cornea (Table 16); conditions: for cataract efficacy, histopathology (in words): Table 16
Procedure: as §1, §2, §3

[7] = test system: cataract induced left eye; assay: Macroscopic examination, cataract induced left eye (Tables 14-15); conditions: for cataract efficacy, macroscopic (in words): Table 15; for No Abnormality Detected, incidence: left eye (cataract induced), macroscopic
Procedure: as §1, §2, §4

[8] = Day 28, ↓↓ = Significantly low at P ≤ 0.01 compared to respective control

## O=C(/C=C/c1ccc(O)c(O)c1)OCCc1ccccc1 [Caffeic Acid Phenyl ethyl Ester, caffeic acid phenylethyl ester]
[1]
  Within Normal Histological Limits, incidence: 0/6
[1]; lens
  Epithelial proliferation, incidence: 6/6
  Lenticular Degeneration, incidence: 6/6
  Liquefaction, incidence: 6/6
[1]; lens, number of animals
  Epithelial proliferation: Marked, incidence: 1
  Epithelial proliferation: Mild, incidence: 3
  Epithelial proliferation: Minimal, incidence: 2
  Liquefaction: Mild, incidence: 2
  Liquefaction: Moderate, incidence: 4
[2]; Day 3
  Intraocular Pressure, mean: 88.07
[2]; Day 6
  Intraocular Pressure, mean: 84.95
[2]; Day 9
  Intraocular Pressure, mean: 84.67
[2]; Day 12
  Intraocular Pressure, mean: 55.95
[2]; Day 15
  Intraocular Pressure, mean: 42.80
[2]; Day 18
  Intraocular Pressure, mean: 42.18
[2]; Day 21
  Intraocular Pressure, mean: 40.93
[2]; Day 24
  Intraocular Pressure, mean: 39.67
[2]; Day 27
  Intraocular Pressure, mean: 36.27
[2]; Day 30
  Intraocular Pressure, mean: 39.42
[2]; Day 33
  Intraocular Pressure, mean: 41.85↓↓
[3]
  Opacity, cornea and red discoloured, with diffuse opacity: Moderate, incidence: 4/6
  Opacity, cornea, diffuse: Minimal, incidence: 1/6
  Opacity, cornea, diffuse: Moderate, incidence: 1/6
  No Abnormality Detected, incidence: 0/6

## O=C(/C=C/c1ccc(O)c(O)c1)NCCc1ccccc1 [Caffeic Acid Phenylethyl Amide, caffeic acid phenylethyl amide]
[1]
  Within Normal Histological Limits, incidence: 0/6
[1]; lens
  Epithelial proliferation, incidence: 2/6
  Epithelial proliferation: Absent, incidence: 4/6
  Lenticular Degeneration, incidence: 5/6
  Liquefaction, incidence: 5/6
  Liquefaction: Absent, incidence: 1/6
[1]; lens, number of animals
  Epithelial proliferation: Mild, incidence: 2
  Liquefaction: Mild, incidence: 2
  Liquefaction: Minimal, incidence: 3
[2]; Day 3
  Intraocular Pressure, mean: 86.65
[2]; Day 6
  Intraocular Pressure, mean: 79.88
[2]; Day 9
  Intraocular Pressure, mean: 78.77
[2]; Day 12
  Intraocular Pressure, mean: 72.72
[2]; Day 15
  Intraocular Pressure, mean: 50.78
[2]; Day 18
  Intraocular Pressure, mean: 49.95
[2]; Day 21
  Intraocular Pressure, mean: 45.67
[2]; Day 24
  Intraocular Pressure, mean: 49.77
[2]; Day 27
  Intraocular Pressure, mean: 36.27
[2]; Day 30
  Intraocular Pressure, mean: 25.85
[2]; Day 33
  Intraocular Pressure, mean: 36.68↓↓
[3]
  Opacity, cornea and red discoloured, with diffuse opacity: Moderate, incidence: 1/6
  Opacity, cornea, diffuse: Mild, incidence: 2/6
  Opacity, cornea, diffuse: Minimal, incidence: 3/6
  No Abnormality Detected, incidence: 0/6

## O=C(O[C@@H]1Cc2c(O)cc(O)cc2O[C@@H]1c1cc(O)c(O)c(O)c1)c1cc(O)c(O)c(O)c1 [Epigallocatechin Gallate, (2R,3R)-2-(3,4,5-trihydroxyphenyl)-3,4-dihydro-1(2H)-benzopyran-3,5,7-triol 3-(3,4,5-trihydroxy benzoate)]
[4]
  overall efficacy / order of efficacy (in words): outstanding efficacy in reducing cataracts and also demonstrated a significant capability to address glaucoma; also recorded: Caffeic Acid G3>Epigallocatechin Gallate G4>Encapsulated Feruloyl Tyramine G5>Ferulic Acid G6>Rosmarinic Acid+Caffeic Acid G2
[5]; Day 3
  Intraocular pressure, Mean, Left eye: 29.72 mmHg
  Intraocular pressure, Mean, Right eye: 18.11 mmHg
[5]; Day 6
  Intraocular pressure, Mean, Left eye: 33.06 mmHg
  Intraocular pressure, Mean, Right eye: 16.94 mmHg
[5]; Day 9
  Intraocular pressure, Mean, Left eye: 26.56 mmHg
  Intraocular pressure, Mean, Right eye: 16.78 mmHg
[5]; Day 12
  Intraocular pressure, Mean, Left eye: 32.50 mmHg
  Intraocular pressure, Mean, Right eye: 17.00 mmHg
[5]; Day 15
  Intraocular pressure, Mean, Left eye: 26.39 mmHg
  Intraocular pressure, Mean, Right eye: 12.56 mmHg
[5]; Day 18
  Intraocular pressure, Mean, Left eye: 28.94 mmHg
  Intraocular pressure, Mean, Right eye: 16.61 mmHg
[5]; Day 21
  Intraocular pressure, Mean, Left eye: 27.11 mmHg
  Intraocular pressure, Mean, Right eye: 16.06 mmHg
[5]; Day 25
  Intraocular pressure, Mean, Left eye: 25.56 mmHg
  Intraocular pressure, Mean, Right eye: 18.17 mmHg
[5]; [8]
  Intraocular pressure, Mean, Left eye: 20.00↓↓ mmHg
[5]; Day 28
  Intraocular pressure, Mean, Right eye: 16.11 mmHg
[5]
  intraocular pressure following treatment: 20.00 mmHg
  mean intraocular pressure initially measured: 29.72 mmHg
[6]
  cataract efficacy, histopathology (in words): fully restored, or regenerated in all 6 out of 6 animals, transitioning from severe degeneration to a milder state; also recorded: Only one animal exhibited mild corneal inflammation
[6]; left eye induced
  Cornea, Inflammation: Mild, incidence: 1/6
  Lens, Liquefaction: Mild, incidence: 6/6
[7]
  cataract efficacy, macroscopic (in words): complete recovery in all 6 animals, with no observable cataracts
  No Abnormality Detected, incidence: 6/6

## COc1cc(/C=C/C(=O)O)ccc1O [Ferulic acid]
[4]
  overall efficacy / order of efficacy (in words): Caffeic Acid G3>Epigallocatechin Gallate G4>Encapsulated Feruloyl Tyramine G5>Ferulic Acid G6>Rosmarinic Acid+Caffeic Acid G2
[5]; Day 3
  Intraocular pressure, Mean, Left eye: 30.39 mmHg
  Intraocular pressure, Mean, Right eye: 17.28 mmHg
[5]; Day 6
  Intraocular pressure, Mean, Left eye: 28.39 mmHg
  Intraocular pressure, Mean, Right eye: 16.89 mmHg
[5]; Day 9
  Intraocular pressure, Mean, Left eye: 28.28 mmHg
  Intraocular pressure, Mean, Right eye: 16.89 mmHg
[5]; Day 12
  Intraocular pressure, Mean, Left eye: 25.33 mmHg
  Intraocular pressure, Mean, Right eye: 17.56 mmHg
[5]; Day 15
  Intraocular pressure, Mean, Left eye: 26.00 mmHg
  Intraocular pressure, Mean, Right eye: 14.94 mmHg
[5]; Day 18
  Intraocular pressure, Mean, Left eye: 26.56 mmHg
  Intraocular pressure, Mean, Right eye: 14.94 mmHg
[5]; Day 21
  Intraocular pressure, Mean, Left eye: 23.22 mmHg
  Intraocular pressure, Mean, Right eye: 17.06 mmHg
[5]; Day 25
  Intraocular pressure, Mean, Left eye: 21.72 mmHg
  Intraocular pressure, Mean, Right eye: 17.61 mmHg
[5]; [8]
  Intraocular pressure, Mean, Left eye: 23.67↓↓ mmHg
[5]; Day 28
  Intraocular pressure, Mean, Right eye: 17.28 mmHg
[5]
  intraocular pressure following treatment: 23.67 mmHg
  mean intraocular pressure initially measured: 30.39 mmHg
[6]
  cataract efficacy, histopathology (in words): minimal to moderate lenticular degeneration
[6]; left eye induced
  Lens, Liquefaction: Mild, incidence: 4/6
  Lens, Liquefaction: Minimal, incidence: 1/6
  Lens, Liquefaction: Moderate, incidence: 1/6
[7]
  cataract efficacy, macroscopic (in words): complete recovery from cataracts in all 6 animals
  No Abnormality Detected, incidence: 6/6
